In the kinase profiling compilation of Christmann-Franck et al. (2016):

Key:
Assay in all cases: radiometric filter-binding kinase assay, Kinase HotSpot
Conditions in all cases: compound 0.5 µM; ATP 10 µM
[1] = molecular target: CAMK1 (human) (UniProt Q14012)
[2] = molecular target: MAPK10 (human) (UniProt P53779)
[3] = molecular target: NEK1 (human) (UniProt Q96PY6)
[4] = molecular target: CDK1 CCNB1 (human) (UniProt P06493+P14635)
[5] = molecular target: PKN2 (human) (UniProt Q16513)
[6] = molecular target: CAMK1G (human) (UniProt Q96NX5)
[7] = molecular target: CDK2 CCNE1 (human) (UniProt P24941+P24864)
[8] = molecular target: MAP3K2 (human) (UniProt Q9Y2U5)
[9] = molecular target: PKN1 (human) (UniProt Q16512)
[10] = molecular target: ZAP70 (human) (UniProt P43403)
[11] = molecular target: STK17A (human) (UniProt Q9UEE5)
[12] = molecular target: FGR (human) (UniProt P09769)
[13] = molecular target: STK10 (human) (UniProt O94804)
[14] = molecular target: KIT (human) (UniProt P10721)
[15] = molecular target: HIPK3 (human) (UniProt Q9H422)
[16] = molecular target: PTK6 (human) (UniProt Q13882)
[17] = molecular target: BMX (human) (UniProt P51813)
[18] = molecular target: STK11 (human) (UniProt Q15831)
[19] = tested on: MAP2K6 (human), P52564 [S207E/T211E]
[20] = molecular target: IRAK4 (human) (UniProt Q9NWZ3)
[21] = tested on: PRKCQ (human), Q04759 [P330L]
[22] = molecular target: FER (human) (UniProt P16591)
[23] = molecular target: TBK1 (human) (UniProt Q9UHD2)
[24] = molecular target: SRC (human) (UniProt P12931)
[25] = molecular target: MAPK14 (human) (UniProt Q16539)
[26] = tested on: MKNK1 (human), Q9BUB5 [T385D; 165-205 del]
[27] = molecular target: STK16 (human) (UniProt O75716)
[28] = molecular target: CDK9 CCNT1 (human) (UniProt P50750+O60563)
[29] = molecular target: INSR (human) (UniProt P06213)
[30] = molecular target: MAP2K2 (human) (UniProt P36507)
[31] = molecular target: LRRK2 (human) (UniProt Q5S007)
[32] = molecular target: NEK2 (human) (UniProt P51955)
[33] = molecular target: MAPK11 (human) (UniProt Q15759)
[34] = molecular target: CAMK1D (human) (UniProt Q8IU85)
[35] = molecular target: BTK (human) (UniProt Q06187)
[36] = molecular target: BRSK2 (human) (UniProt Q8IWQ3)
[37] = molecular target: CSNK2A1 (human) (UniProt P68400)
[38] = molecular target: PAK2 (human) (UniProt Q13177)
[39] = molecular target: CDK4 CCND3 (human) (UniProt P30281+P11802)
[40] = molecular target: SRPK2 (human) (UniProt P78362)
[41] = molecular target: MARK4 (human) (UniProt Q96L34)

MKNK1 (human), Q9BUB5 [T385D; 165-205 del], sequence (Q9BUB5 whole entry, looked up, stated change not applied): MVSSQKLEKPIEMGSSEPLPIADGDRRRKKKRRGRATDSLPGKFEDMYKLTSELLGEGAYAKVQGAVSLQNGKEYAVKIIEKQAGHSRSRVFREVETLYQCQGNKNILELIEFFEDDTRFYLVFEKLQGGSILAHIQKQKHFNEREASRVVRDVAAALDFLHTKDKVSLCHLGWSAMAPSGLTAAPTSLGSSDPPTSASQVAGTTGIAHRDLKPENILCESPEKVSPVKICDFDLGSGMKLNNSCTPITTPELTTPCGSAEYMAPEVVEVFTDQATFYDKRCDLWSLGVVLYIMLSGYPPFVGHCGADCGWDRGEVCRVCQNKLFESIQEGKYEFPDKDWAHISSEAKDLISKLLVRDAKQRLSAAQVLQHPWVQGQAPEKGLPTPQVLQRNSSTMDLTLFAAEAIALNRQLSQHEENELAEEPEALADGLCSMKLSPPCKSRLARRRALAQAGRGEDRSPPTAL
ZAP70 (human), sequence (P43403 whole entry, looked up): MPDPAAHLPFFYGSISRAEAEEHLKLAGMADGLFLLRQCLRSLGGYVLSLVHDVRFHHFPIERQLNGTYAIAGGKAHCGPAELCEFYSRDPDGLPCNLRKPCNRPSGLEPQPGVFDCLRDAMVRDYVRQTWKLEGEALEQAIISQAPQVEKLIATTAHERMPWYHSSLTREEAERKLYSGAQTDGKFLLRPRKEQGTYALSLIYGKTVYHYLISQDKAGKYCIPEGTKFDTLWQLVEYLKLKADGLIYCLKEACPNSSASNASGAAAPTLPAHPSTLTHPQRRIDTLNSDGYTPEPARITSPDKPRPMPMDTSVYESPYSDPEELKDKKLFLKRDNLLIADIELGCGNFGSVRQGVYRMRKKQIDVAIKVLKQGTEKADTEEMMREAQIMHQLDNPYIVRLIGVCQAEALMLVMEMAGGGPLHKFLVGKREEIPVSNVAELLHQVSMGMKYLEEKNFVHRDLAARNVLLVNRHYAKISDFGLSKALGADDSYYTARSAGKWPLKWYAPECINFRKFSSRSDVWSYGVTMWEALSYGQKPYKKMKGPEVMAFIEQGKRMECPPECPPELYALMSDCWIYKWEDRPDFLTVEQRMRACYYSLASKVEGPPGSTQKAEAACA
INSR (human), sequence (P06213 whole entry, looked up): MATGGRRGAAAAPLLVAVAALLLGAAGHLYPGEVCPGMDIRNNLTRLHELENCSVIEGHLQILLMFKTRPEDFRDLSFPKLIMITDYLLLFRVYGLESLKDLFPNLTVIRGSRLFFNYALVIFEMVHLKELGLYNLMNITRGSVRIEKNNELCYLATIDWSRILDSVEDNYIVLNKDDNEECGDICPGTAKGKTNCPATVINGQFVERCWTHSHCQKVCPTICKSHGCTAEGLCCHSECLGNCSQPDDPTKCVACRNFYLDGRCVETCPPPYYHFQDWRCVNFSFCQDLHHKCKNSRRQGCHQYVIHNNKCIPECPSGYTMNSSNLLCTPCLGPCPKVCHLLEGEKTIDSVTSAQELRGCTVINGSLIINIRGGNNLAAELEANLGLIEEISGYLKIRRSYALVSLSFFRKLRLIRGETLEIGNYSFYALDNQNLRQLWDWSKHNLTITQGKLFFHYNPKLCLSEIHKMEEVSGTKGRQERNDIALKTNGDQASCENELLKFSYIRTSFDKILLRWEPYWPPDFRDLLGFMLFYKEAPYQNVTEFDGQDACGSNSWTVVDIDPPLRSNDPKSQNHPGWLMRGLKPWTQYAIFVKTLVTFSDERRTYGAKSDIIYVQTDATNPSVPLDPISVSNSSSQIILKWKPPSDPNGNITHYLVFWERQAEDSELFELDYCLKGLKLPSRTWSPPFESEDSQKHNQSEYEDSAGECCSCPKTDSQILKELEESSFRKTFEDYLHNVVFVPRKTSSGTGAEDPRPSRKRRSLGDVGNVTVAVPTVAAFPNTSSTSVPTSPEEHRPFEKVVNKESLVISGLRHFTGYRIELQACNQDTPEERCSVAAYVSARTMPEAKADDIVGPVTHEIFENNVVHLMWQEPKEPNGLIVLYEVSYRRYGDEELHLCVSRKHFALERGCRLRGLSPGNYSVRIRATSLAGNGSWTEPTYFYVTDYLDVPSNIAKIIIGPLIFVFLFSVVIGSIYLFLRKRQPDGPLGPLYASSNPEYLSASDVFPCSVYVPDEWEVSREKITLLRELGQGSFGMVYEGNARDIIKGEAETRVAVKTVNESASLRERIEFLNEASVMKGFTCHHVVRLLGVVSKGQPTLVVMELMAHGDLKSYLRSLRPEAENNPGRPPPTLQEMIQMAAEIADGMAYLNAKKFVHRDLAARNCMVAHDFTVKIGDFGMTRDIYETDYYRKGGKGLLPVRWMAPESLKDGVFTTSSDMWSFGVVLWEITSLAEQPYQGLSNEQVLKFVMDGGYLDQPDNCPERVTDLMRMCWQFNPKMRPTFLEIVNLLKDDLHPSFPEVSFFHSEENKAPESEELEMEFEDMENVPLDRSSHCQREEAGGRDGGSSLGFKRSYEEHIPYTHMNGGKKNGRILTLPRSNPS
PKN2 (human), sequence (Q16513 whole entry, looked up): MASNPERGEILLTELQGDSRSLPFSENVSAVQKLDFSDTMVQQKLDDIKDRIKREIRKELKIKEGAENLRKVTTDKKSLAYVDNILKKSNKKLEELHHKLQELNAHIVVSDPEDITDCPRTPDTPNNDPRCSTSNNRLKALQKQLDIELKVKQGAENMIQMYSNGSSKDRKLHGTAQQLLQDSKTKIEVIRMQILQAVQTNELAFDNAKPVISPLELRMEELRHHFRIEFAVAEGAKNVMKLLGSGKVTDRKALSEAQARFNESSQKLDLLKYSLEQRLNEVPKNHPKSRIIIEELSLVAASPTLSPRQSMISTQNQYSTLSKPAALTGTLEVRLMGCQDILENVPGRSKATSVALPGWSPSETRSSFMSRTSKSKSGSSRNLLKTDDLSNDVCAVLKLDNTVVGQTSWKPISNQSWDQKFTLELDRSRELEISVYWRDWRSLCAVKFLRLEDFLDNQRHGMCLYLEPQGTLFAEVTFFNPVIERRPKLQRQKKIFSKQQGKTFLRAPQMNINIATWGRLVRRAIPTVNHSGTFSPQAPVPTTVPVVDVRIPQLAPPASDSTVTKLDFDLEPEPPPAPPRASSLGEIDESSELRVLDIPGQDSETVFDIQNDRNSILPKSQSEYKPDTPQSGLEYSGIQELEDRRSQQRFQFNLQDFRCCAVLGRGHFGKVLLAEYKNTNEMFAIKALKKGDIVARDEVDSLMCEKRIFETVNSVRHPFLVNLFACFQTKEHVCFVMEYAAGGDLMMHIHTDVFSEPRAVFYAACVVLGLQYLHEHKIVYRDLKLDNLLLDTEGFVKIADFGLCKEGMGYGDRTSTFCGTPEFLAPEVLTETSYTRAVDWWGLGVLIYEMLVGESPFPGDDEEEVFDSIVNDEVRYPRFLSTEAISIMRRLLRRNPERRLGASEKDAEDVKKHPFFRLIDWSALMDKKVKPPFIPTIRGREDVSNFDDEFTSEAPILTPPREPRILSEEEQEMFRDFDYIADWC
MAP3K2 (human), sequence (Q9Y2U5 whole entry, looked up): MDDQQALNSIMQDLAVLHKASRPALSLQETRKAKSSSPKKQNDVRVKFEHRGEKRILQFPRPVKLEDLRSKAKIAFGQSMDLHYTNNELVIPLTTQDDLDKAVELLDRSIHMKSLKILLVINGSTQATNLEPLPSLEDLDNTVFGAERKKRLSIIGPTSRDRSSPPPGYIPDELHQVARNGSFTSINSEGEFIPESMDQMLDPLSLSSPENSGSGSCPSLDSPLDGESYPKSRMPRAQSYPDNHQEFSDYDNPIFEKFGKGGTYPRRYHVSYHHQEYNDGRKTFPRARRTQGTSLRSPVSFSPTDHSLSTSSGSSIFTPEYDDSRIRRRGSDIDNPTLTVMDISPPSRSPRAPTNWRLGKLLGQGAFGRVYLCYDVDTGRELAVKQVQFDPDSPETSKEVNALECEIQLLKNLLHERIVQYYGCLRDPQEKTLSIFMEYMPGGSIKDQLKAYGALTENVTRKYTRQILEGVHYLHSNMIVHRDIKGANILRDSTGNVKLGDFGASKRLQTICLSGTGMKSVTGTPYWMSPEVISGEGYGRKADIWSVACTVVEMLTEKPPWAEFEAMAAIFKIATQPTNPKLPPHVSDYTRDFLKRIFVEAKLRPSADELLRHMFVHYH
CAMK1 (human), sequence (Q14012 whole entry, looked up): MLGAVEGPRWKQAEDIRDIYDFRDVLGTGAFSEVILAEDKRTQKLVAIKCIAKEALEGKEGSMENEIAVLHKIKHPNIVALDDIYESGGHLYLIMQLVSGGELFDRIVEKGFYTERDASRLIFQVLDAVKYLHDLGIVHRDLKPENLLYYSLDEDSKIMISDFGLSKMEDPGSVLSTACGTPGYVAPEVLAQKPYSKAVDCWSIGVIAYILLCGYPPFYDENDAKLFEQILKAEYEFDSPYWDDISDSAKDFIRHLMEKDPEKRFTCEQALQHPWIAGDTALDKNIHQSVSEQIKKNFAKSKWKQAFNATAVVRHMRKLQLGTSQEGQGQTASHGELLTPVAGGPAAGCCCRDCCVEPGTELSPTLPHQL
FGR (human), sequence (P09769 whole entry, looked up): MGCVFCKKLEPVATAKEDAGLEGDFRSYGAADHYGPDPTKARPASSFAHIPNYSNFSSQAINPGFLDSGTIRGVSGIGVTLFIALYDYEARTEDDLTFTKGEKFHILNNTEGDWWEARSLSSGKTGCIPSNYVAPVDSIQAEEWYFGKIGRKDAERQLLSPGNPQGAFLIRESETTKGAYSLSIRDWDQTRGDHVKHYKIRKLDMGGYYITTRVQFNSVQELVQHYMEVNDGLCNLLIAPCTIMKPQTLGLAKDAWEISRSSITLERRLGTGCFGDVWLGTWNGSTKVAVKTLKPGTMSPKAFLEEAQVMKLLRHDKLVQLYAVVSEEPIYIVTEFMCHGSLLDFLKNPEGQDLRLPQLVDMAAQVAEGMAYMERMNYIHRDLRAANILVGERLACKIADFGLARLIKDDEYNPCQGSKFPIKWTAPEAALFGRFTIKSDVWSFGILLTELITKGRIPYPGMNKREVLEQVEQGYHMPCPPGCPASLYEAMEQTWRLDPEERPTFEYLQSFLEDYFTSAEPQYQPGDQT

`O=C(c1cc2cc(O)ccc2[nH]1)c1cc2cc(O)ccc2[nH]1` was tested, and the residual activity [1] was 97.4%, the residual activity [2] was 91.6% and the residual activity [3] was 93.4%. The residual activity [4] was 60.5%, the residual activity [5] was 97.1% and the residual activity [6] was 101%. It also gave a residual activity [7] of 65%, a residual activity [8] of 102% and a residual activity [9] of 76.3%. For the same molecule, the residual activity [10] was 101%, the residual activity [11] was 51.7% and the residual activity [12] was 12.7%. For the same molecule, the residual activity [13] was 70.3%, the residual activity [14] was 45.6% and the residual activity [15] was 97.3%. It also gave a residual activity [16] of 91.9%, a residual activity [17] of 80.6% and a residual activity [18] of 101%. For the same molecule, the residual activity [19] was 93.6%, the residual activity [20] was 85.9% and the residual activity [21] was 92.1%. It also gave a residual activity [22] of 86.6%, a residual activity [23] of 35% and a residual activity [24] of 36.4%. It also gave a residual activity [25] of 103%, a residual activity [26] of 83.6% and a residual activity [27] of 54.6%. The residual activity [28] was 76.6%, the residual activity [29] was 93.8% and the residual activity [30] was 98.8%. It also gave a residual activity [31] of 87.2%, a residual activity [32] of 101% and a residual activity [33] of 95.7%. For the same molecule, the residual activity [34] was 91.5%, the residual activity [35] was 86.8% and the residual activity [36] was 44.3%. For the same molecule, the residual activity [37] was 88.7%, the residual activity [38] was 97% and the residual activity [39] was 105%. For the same molecule, the residual activity [40] was 97.1% and the residual activity [41] was 55.3%.

In the case of `COc1ccc2c(c1)c(C1=C(c3c[nH]c4ccccc34)C(=O)NC1=O)cn2CCCN(C)C`, the residual activity [1] was 90.2%, the residual activity [2] was 88.8% and the residual activity [3] was 94.7%. For the same molecule, the residual activity [4] was 94.4%, the residual activity [5] was 95% and the residual activity [6] was 95%. The residual activity [7] was 97.9%, the residual activity [8] was 80.6% and the residual activity [9] was 34.7%. The residual activity [10] was 90.3%, the residual activity [11] was 84% and the residual activity [12] was 107%. For the same molecule, the residual activity [13] was 31.7%, the residual activity [14] was 88.8% and the residual activity [15] was 74.1%. For the same molecule, the residual activity [16] was 92%, the residual activity [17] was 96.3% and the residual activity [18] was 101%. It also gave a residual activity [19] of 91.6%, a residual activity [20] of 91.2% and a residual activity [21] of 4.5%. It also gave a residual activity [22] of 70.9%, a residual activity [23] of 90.7% and a residual activity [24] of 79.8%. It also gave a residual activity [25] of 103%, a residual activity [26] of 92.8% and a residual activity [27] of 93.1%. The residual activity [28] was 69.7%, the residual activity [29] was 94.1% and the residual activity [30] was 103%. It also gave a residual activity [31] of 87%, a residual activity [32] of 99.7% and a residual activity [33] of 96.7%. It also gave a residual activity [34] of 73.3%, a residual activity [35] of 90.2% and a residual activity [36] of 61.3%. The residual activity [37] was 95.9%, the residual activity [38] was 108% and the residual activity [39] was 95.5%. The residual activity [40] was 88% and the residual activity [41] was 95.9%.
